System: 5α-reductase
Experiment: 5α-reductase inhibitory efficacy: DHT produced in testosterone-stimulated dermal papilla cells (DHT ELISA)
Format: cell-based
Conditions: 50 nM testosterone, 24 hours, produced DHT relative to control
Protocol: After seeding 1 ml of dermal papilla cells (DPCs) by 5×10^5/ml into each well of a 24-well plate, then incubating the same for 24 hours, each of the reaction products prepared according to procedures described in Examples 1 to 72 was added in amounts of 50 μg/ml, 10 μg/ml and 0 μg/ml, respectively, to individual wells. After 1 hour, the wells were subjected to stimulation using 50 nM testosterone (DMSO dissolved). The supernatant was discarded 24 hours after culturing, to thus obtain DPc pellets. A content of dihydrotestosterone (DHT) (DB52021, Hamburg, Germany) was determined by means of enzyme-linked immune-sorbent assay. DPCs cell pellets were seeded in an amount of 100 μL into each of Dihydrotestosterone (DHT) ELISA microtiter strips coated with rabbit anti-DHT antibody, 25 μL of DHT antiserum was seeded in every well, and subjected to a reaction at 2 to 8° C. for 15 to 20 hours, followed by washing the same three times. Thereafter, 100 μL of DHT-HRP enzyme conjugate was seeded in every well and reacted on a shaker at room temperature for 30 minutes, followed by washing the same three times. Furthermore, 100 μL of substrate was seeded in every well and reacted on a shaker at room temperature for 20 to 30 minutes. Then, the product was treated using 100 μL stop solution, and subjected to measurement of absorbance at 450 nm to express an amount of produced DHT by the absorbance (three times repeated). An amount of produced DHT relative to a control was calculated in terms of an inhibitory rate (%), and results thereof are shown in Table 3 below.

Compound | 5α-reductase inhibitory rate (%) (sample concentration 10 μg/ml) | 5α-reductase inhibitory rate (%) (sample concentration 50 μg/ml)
CC1(C)CC[C@]2(C)CC[C@]3(C)C(=CC[C@@H]4[C@@]5(C)CC[C@H](O)C(C)(C)[C@@H]5CC[C@]43C)[C@@H]2C1 [Compound in Example 1, β-amyrin] | 15% | 28%
CC(=O)O[C@H]1CC[C@]2(C)[C@H]3CC=C4[C@@H]5CC(C)(C)CC[C@]5(C)CC[C@@]4(C)[C@]3(C)CC[C@H]2C1(C)C [Compound in Example 2, β-amyrin acetate] | 21% | 34%
CC(C)=CC(=O)OC1CCC2(C)C(CCC3(C)C2CC=C2C4CC(C)(C)CCC4(C)CCC23C)C1(C)C (stereo not drawn) [Compound in Example 3, β-amyrin 3-methyl-2-butenate] | 28% | 41%
CCCCC(CC)C(=O)OC1CCC2(C)C(CCC3(C)C2CC=C2C4CC(C)(C)CCC4(C)CCC23C)C1(C)C (stereo not drawn) [Compound in Example 4, β-amyrin 2-ethylhexanoate] | 36% | 54%
CCCCCCCC(=O)OC1CCC2(C)C(CCC3(C)C2CC=C2C4CC(C)(C)CCC4(C)CCC23C)C1(C)C (stereo not drawn) [Compound in Example 5, β-amyrin octanoate] | 41% | 57%
CCCCCCCCCCCCCCCC(=O)O[C@H]1CC[C@]2(C)[C@H]3CC=C4[C@@H]5CC(C)(C)CC[C@]5(C)CC[C@@]4(C)[C@]3(C)CC[C@H]2C1(C)C [Compound in Example 7, β-amyrin palmitate] | 53% | 67%
C[C@H]1[C@H](C)CC[C@]2(C)CC[C@]3(C)C(=CC[C@@H]4[C@@]5(C)CC[C@H](O)C(C)(C)[C@@H]5CC[C@]43C)[C@H]12 [Compound in Example 10, α-amyrin] | 13% | 29%
CC(=O)O[C@H]1CC[C@]2(C)[C@H]3CC=C4[C@@H]5[C@@H](C)[C@H](C)CC[C@]5(C)CC[C@@]4(C)[C@]3(C)CC[C@H]2C1(C)C [Compound in Example 11, α-amyrin acetate] | 31% | 42%
CCCCCCCC(=O)OC1CCC2(C)C(CCC3(C)C2CC=C2C4C(C)C(C)CCC4(C)CCC23C)C1(C)C (stereo not drawn) [Compound in Example 12, α-amyrin octanoate] | 35% | 49%
CC[C@H](CC[C@@H](C)[C@H]1CC[C@H]2[C@@H]3CC=C4C[C@@H](O)CC[C@]4(C)[C@H]3CC[C@]12C)C(C)C [Compound in Example 14, β-sitosterol] | 11% | 26%
CC[C@H](CC[C@@H](C)[C@H]1CC[C@H]2[C@@H]3CC=C4C[C@@H](OC(C)=O)CC[C@]4(C)[C@H]3CC[C@]12C)C(C)C [Compound in Example 15, β-sitosterol acetate] | 21% | 29%
CCCCCCCC(=O)OC1CCC2(C)C(=CCC3C2CCC2(C)C(C(C)CCC(CC)C(C)C)CCC32)C1 (stereo not drawn) [Compound in Example 16, β-sitosterol octanoate] | 28% | 39%
CCCCCCCCCCCCCCCCCC(=O)O[C@H]1CC[C@@]2(C)C(=CC[C@H]3[C@@H]4CC[C@H]([C@H](C)CC[C@@H](CC)C(C)C)[C@@]4(C)CC[C@@H]32)C1 [Compound in Example 17, β-sitosterol stearate] | 31% | 42%
C[C@H]1[C@H](C)CC[C@]2(C(=O)O)CC[C@]3(C)C(=CC[C@@H]4[C@@]5(C)CC[C@H](O)C(C)(C)[C@@H]5CC[C@]43C)[C@H]12 [Compound in Example 18, ursolic acid] | 16% | 29%
CCCCCCCC(=O)OC1CCC2(C)C(CCC3(C)C2CC=C2C4C(C)C(C)CCC4(C(=O)O)CCC23C)C1(C)C (stereo not drawn) [Compound in Example 20, ursolic acid octanoate] | 31% | 46%
CC1(C)CC[C@]2(C(=O)O)CC[C@]3(C)C(=CC[C@@H]4[C@@]5(C)CC[C@H](O)C(C)(C)[C@@H]5CC[C@]43C)[C@@H]2C1 [Compound in Example 22, oleanolic acid] | 7% | 16%
CCCCCCCC(=O)OC1CCC2(C)C(CCC3(C)C2CC=C2C4CC(C)(C)CCC4(C(=O)O)CCC23C)C1(C)C (stereo not drawn) [Compound in Example 24, oleanolic acid octanoate] | 21% | 39%
CC1(C)CC[C@]2(C)CC[C@]3(C)C(=CC[C@@H]4[C@@]5(C)CC[C@@H](O)[C@](C)(C(=O)O)[C@@H]5CC[C@]43C)[C@@H]2C1 [Compound in Example 26, α-boswellic acid] | 10% | 19%
CC(=O)OC1CCC2(C)C(CCC3(C)C2CC=C2C4CC(C)(C)CCC4(C)CCC23C)C1(C)C(=O)O (stereo not drawn) [Compound in Example 27, α-boswellic acid acetate] | 21% | 29%
C[C@H]1[C@H](C)CC[C@]2(C)CC[C@]3(C)C(=CC[C@@H]4[C@@]5(C)CC[C@@H](O)[C@](C)(C(=O)O)[C@@H]5CC[C@]43C)[C@H]12 [Compound in Example 29, β-boswellic acid] | 11% | 23%
CC(=O)OC1CCC2(C)C(CCC3(C)C2CC=C2C4C(C)C(C)CCC4(C)CCC23C)C1(C)C(=O)O (stereo not drawn) [Compound in Example 30, β-boswellic acid acetate] | 14% | 29%
C=C(C)[C@@H]1CC[C@]2(C(=O)O)CC[C@]3(C)[C@H](CC[C@@H]4[C@@]5(C)CC[C@H](O)C(C)(C)[C@@H]5CC[C@]43C)[C@@H]12 [Compound in Example 32, betulinic acid] | 9% | 17%
CC1(C)[C@@H](O)CC[C@]2(C)[C@H]3C(=O)C=C4[C@@H]5C[C@@](C)(C(=O)O)CC[C@]5(C)CC[C@@]4(C)[C@]3(C)CC[C@@H]12 [Compound in Example 34, glycyrrhetinic acid] | 6% | 18%
C[C@]12CC[C@H](O)CC1=CC[C@@H]1[C@@H]2CC[C@]2(C)C(=O)CC[C@@H]12 [Compound in Example 36, dihydroandrosterone] | 9% | 28%
CC(C)=CCC[C@@H](C)[C@H]1CC[C@H]2[C@@H]3CC=C4C[C@@H](O)CC[C@]4(C)[C@H]3CC[C@]12C [Compound in Example 38, desmosterol] | 12% | 31%
CC(C)CCC[C@@H](C)[C@H]1CC[C@H]2[C@@H]3CC=C4C[C@@H](O)CC[C@]4(C)[C@H]3CC[C@]12C [Compound in Example 40, cholesterol] | 15% | 17%
CCCCCCCCCCCCCCCCCC(=O)O[C@H]1CC[C@@]2(C)C(=CC[C@H]3[C@@H]4CC[C@H]([C@H](C)CCCC(C)C)[C@@]4(C)CC[C@@H]32)C1 [Compound in Example 41, cholesterol stearate] | 26% | 39%
CC[C@H](/C=C/[C@@H](C)[C@H]1CC[C@H]2[C@@H]3CC=C4C[C@@H](O)CC[C@]4(C)[C@H]3CC[C@]12C)C(C)C [Compound in Example 42, Stigmasterol] | 8% | 24%
CCCCCCCCCCCCCCCCCC(=O)O[C@H]1CC[C@@]2(C)C(=CC[C@H]3[C@@H]4CC[C@H]([C@H](C)/C=C/[C@@H](CC)C(C)C)[C@@]4(C)CC[C@@H]32)C1 [Compound in Example 43, Stigmasterol stearate] | 31% | 41%
CC(C)[C@H](C)CC[C@@H](C)[C@H]1CC[C@H]2[C@@H]3CC=C4C[C@@H](O)CC[C@]4(C)[C@H]3CC[C@]12C [Compound in Example 44, Campesterol] | 11% | 21%

From patent US20150246058A1, “COMPOSITION FOR PREVENTING HAIR LOSS AND ACCELERATING HAIR GROWTH” (RNS CO., LTD., priority 2012, published 2015)
